Results on 5 compounds are retold here after paper PMC9592910, “Tissue distribution and integrated pharmacokinetic properties of major effective constituents of oral Gegen-Qinlian decoction in mice” (Frontiers in Pharmacology, 2022).

Marks after values point to notes of the source that are not given here.

Assay type in all cases: in vivo, Kunming mice
Data set [1] in a line: Pharmacokinetics of GQD constituents in the portal vein of mice after oral GQD. The following applies: for AUC(0-t): read-out: AUC0–24 h. How it is done:
(§1) Fifty-four Kunming mice were randomly divided into nine groups according to body weight and gender (3 male and three female in each group). Each group was orally administered with water solution (0.2 ml/10 g body weight) of the GQD extract powder at the dosage of 6.1 g/kg body weight. The dosage of GQD extract powder equals to 18 g/kg herbal pieces of GQD, which is equivalent to its clinical dosage. At each designed time point (0.08, 0.25, 0.5, 1, 2, 4, 8, 12, and 24 h) after oral administration, six mice were anesthetized with ether, and blood was collected from the portal vein (about 0.2 ml, aspirated in a 1 ml heparinized syringe) and then the systemic circulation (about 0.2 ml, collected in heparinized tubes after removal of the eyeball) of the mice to prepare plasma samples, and the livers and the colons were removed to prepare respective homogenate. After pretreatment, the concentrations of 19 major constituents of GQD in each sample were measured by the validated LC-MS/MS method (see “2.3”). Then the C-T curves of the constituents in the plasma and the tissue homogenates were respectively drawn and their pharmacokinetic parameters were respectively calculated.
(§2) It should be noted that the pharmacokinetic parameters of a GQD constituent was calculated based on its average concentration in six mice at each time point. The results were expressed as mean ± SD.

Data set [2] is described as follows: Pharmacokinetics of GQD constituents in the systemic circulation of mice after oral GQD. As to conditions: for Cmax / MRT / AUC(0-t): oral GQD 6.1 g/kg; for AUC(0-t): read-out: AUC0–24 h. How it is done: as §1, §2
The nature of data set [3]: Pharmacokinetics/tissue distribution of GQD constituents in the livers of mice after oral GQD. The following applies: for Kp: both sexes. As for the experimental part:
(§3) The liver and the colon homogenates were prepared with 10 times (V: W) the volume of ascorbic acid solution (200 μg/ml). Then the homogenates were pretreated as plasma to obtain the tissue samples for LC-MS/MS analysis. Fifty-four Kunming mice were randomly divided into nine groups according to body weight and gender (3 male and three female in each group). […] Then the C-T curves of the constituents in the plasma and the tissue homogenates were respectively drawn and their pharmacokinetic parameters were respectively calculated. […] It should be noted that the pharmacokinetic parameters of a GQD constituent was calculated based on its average concentration in six mice at each time point. The results were expressed as mean ± SD.

A short description of data set [4]: Pharmacokinetics/tissue distribution of GQD constituents in the colons of mice after oral GQD. How it is done: as §3
Setting [5] is: both, Kunming, mouse, portal vein plasma, po, […], portal vein plasma, mice, oral GQD extract […], read-out: Tmax.
[6] abbreviates: both, Kunming, mouse, portal vein plasma, mice, oral GQD extract 6.1 g/kg.
Where [7] appears, read: both, Kunming, mouse, portal vein plasma, mice, oral GQD extract 6.1 g/kg, read-out: T1/2 (converted).
Where [8] appears, read: both, Kunming, mouse, systemic circulation plasma, po, […], systemic circulation plasma, mice, oral GQD […], read-out: T1/2 (converted).
Setting [9] is: both, Kunming, mouse, systemic circulation plasma, po, […], systemic circulation plasma, mice, oral GQD […], read-out: Tmax.
Setting [10] is: both, Kunming, mouse, systemic circulation plasma, mice.
The mark [11] stands for this setting: systemic circulation plasma, mice, oral GQD […].
[12] abbreviates: both, Kunming, mouse, liver (homogenate), po, […], liver, mice, oral GQD extract […], read-out: T1/2 (converted).
The mark [13] stands for this setting: both, Kunming, mouse, liver (homogenate), liver, mice, oral GQD extract 6.1 g/kg.
Setting [14] is: both, Kunming, mouse, liver (homogenate), liver, mice, oral GQD extract 6.1 g/kg, read-out: Tmax.
Setting [15] is: liver, mice, oral GQD extract […].
Where [16] appears, read: both, Kunming, mouse, colon (homogenate), po, […], colon, mice, oral GQD extract […], read-out: T1/2 (converted).
Where [17] appears, read: both, Kunming, mouse, colon (homogenate), colon, mice, oral GQD extract 6.1 g/kg.
Setting [18] is: both, Kunming, mouse, colon (homogenate), colon, mice, oral GQD extract 6.1 g/kg, read-out: Tmax.
The mark [19] stands for this setting: colon, mice, oral GQD extract […].
Where [20] appears, read: both, Kunming, mouse, in vivo, po, […].
Where [21] appears, read: both, Kunming, mouse, in vivo, po, […], Tmax.
The mark [22] stands for this setting: both, Kunming, mouse, in vivo, po, […], T1/2.
Setting [23] is: portal vein plasma, mice, oral GQD extract […].

Usually Tmax stands for the time at which the peak concentration occurs. Usually Cmax stands for the highest concentration seen after dosing. For orientation: MRT means a mean duration of stay, worked out from the concentration-time curve. For `CC1(C)[C@@H](O)CC[C@]2(C)[C@H]3C(=O)C=C4[C@@H]5C[C@@](C)(C(=O)O)CC[C@]5(C)CC[C@@]4(C)[C@]3(C)CC[C@@H]12` [Glycyrrhetinic acid, glycyrrhetinic acid], the time to peak (Tmax) in data set [1] (setting [5]), in data set [2] (setting [9]), in data set [3] (setting [14]) and in data set [4] (setting [18]) was 4 h in each case. The peak concentration (Cmax) in data set [1] (setting [6]) is 643 ng/mL; in data set [2] (setting [10]), 196 ng/mL; in data set [3] (setting [13]), 910 ng/g; in data set [4] (setting [17]) it was 1830 ng/g. For the same compound, the mean residence time (MRT) is 7 h in data set [1] (setting [6]), 8.4 h in data set [2] (setting [10]), 8.6 h in data set [3] (setting [13]) and 7 h in data set [4] (setting [17]). Moreover, the AUC(0-t) in data set [1] (setting [6]) amounted to 5330 ng·h/mL; in data set [2] (setting [10]), 2120 ng·h/mL. The half-life in data set [1] (setting [7]) was 4.7 h; in data set [2] (setting [8]), around 6 h; in data set [3] (setting [12]) it was 6 to 7 h; in data set [4] (setting [16]) it was 4 to 5 h. For the same compound, the T1/2 in data set [2] (setting [11]) is 6.2# h; in data set [3] (setting [15]) it was 6.6# h; in data set [4] (setting [19]), 4.4 h.
As for `COc1cc2c(cc1O)CC[n+]1cc3c(OC)c(OC)ccc3cc1-2` [Jatrorrhizine, jatrorrhizine], the Tmax amounted to 4 h in data set [1] (setting [5]), 0.08 h in data set [2] (setting [9]), 4 h in data set [3] (setting [14]) and 4 h in data set [4] (setting [18]). The Cmax in data set [1] (setting [6]) was 16.6 ng/mL; in data set [2] (setting [10]), 10.1 ng/mL; in data set [3] (setting [13]), 136 ng/g; in data set [4] (setting [17]), 2100 ng/g. Also, the mean residence time (MRT) in data set [1] (setting [6]) stood at 4.8 h; in data set [2] (setting [10]), 3.9 h; in data set [3] (setting [13]), 6.6 h; in data set [4] (setting [17]) it was 6.2 h. The AUC(0-t) in data set [1] (setting [6]) is 116 ng·h/mL; in data set [2] (setting [10]), 26.3 ng·h/mL. Further, the half-life in data set [1] (setting [7]) is 6.3 h; in data set [2] (setting [8]), 4.3 h; in data set [3] (setting [12]), 2.4 h; in data set [4] (setting [16]), 5 h.
As to `O=C1C[C@@H](c2ccc(O[C@@H]3O[C@H](CO)[C@@H](O)[C@H](O)[C@H]3O)cc2)Oc2cc(O)ccc21` [Liquiritin, liquiritin], the half-life in data set [1] (setting [20]) was 2.5 h; in data set [2] (setting [22]) it was 1.5 h; in data set [3] (setting [22]) it was 19.7 h; in data set [4] (setting [22]), 19.5 h. Moreover, the Tmax in data set [1] (setting [21]) turned out to be 0.25 h; in data set [2] (setting [21]) it was 0.25 h; in data set [3] (setting [20]), 4 h; in data set [4] (setting [20]) it was 0.5 h. In addition, the Kp in data set [3] (Kunming, mouse, in vivo, po, AUC0–24 h liv/AUC0–24 h cir) was around 5; in data set [3] (Kunming, mouse, in vivo, po, AUC0–24 h liv/AUC0–24 h por), 2.4. Moreover, the “AUC0–24 h liv/AUC0–24 h cir” value in data set [3] (both, Kunming, mouse, in vivo, po) is recorded as 5.1.
On to `COc1ccc2c(c1O)-c1c(O)c(OC)cc3c1[C@H](C2)[N+](C)(C)CC3` [Magnoflorine, magnoflorine], for which the time of peak concentration (Tmax) stood at 0.25 h in data set [1] (setting [5]), 0.5 h in data set [2] (setting [9]), 0.25 h in data set [3] (setting [14]) and 4 h in data set [4] (setting [18]). Besides, the Cmax is 38.3 ng/mL in data set [1] (setting [6]), 22.4 ng/mL in data set [2] (setting [10]), 53.4 ng/g in data set [3] (setting [13]) and 2150 ng/g in data set [4] (setting [17]). Besides, the mean residence time (MRT) worked out at 2.6 h in data set [1] (setting [6]), 2.6 h in data set [2] (setting [10]), 5.3 h in data set [3] (setting [13]) and 5 h in data set [4] (setting [17]). Also, the AUC(0-t) was 161 ng·h/mL in data set [1] (setting [6]) and 94.9 ng·h/mL in data set [2] (setting [10]). In addition, the half-life in data set [1] (setting [7]) was 1.2 h; in data set [2] (setting [8]), 1.9 h; in data set [3] (setting [12]) it was 5.3 h; in data set [4] (setting [16]), 2.1 h.
In the case of `COc1cc2c(cc1OC)-c1cc3ccc(OC)c(OC)c3c[n+]1CC2` [Palmatine, palmatine], the T1/2 stood at 3.0 h in data set [1] (setting [23]), 7.2 h in data set [2] (setting [11]), 4.6 h in data set [3] (setting [15]) and 3.8 h in data set [4] (setting [19]). Further, the Tmax in data set [1] (setting [23]) was 4.0 h; in data set [2] (setting [11]), 1.0 h; in data set [3] (setting [15]), 2.0 h; in data set [4] (setting [19]), 4.0 h.
